Test results taken from patent US12122787B2, “Fused pyridone compound, and preparation method therefor and use thereof” (SHANGHAI JEMINCARE PHARMACEUTICALS CO., LTD, priority 2019, dated 2024).
Read-outs that look alike come from different tables or passages of the source.

Assays:
Format in all cases: cell-based
[1] = system: phosphorylated ERK (Thr202/Tyr204) in NCI-H358 cells expressing mutant RAS(G12C); assay: Inhibition of RAS-mediated signal transduction: phosphorylated ERK ELISA in NCI-H358 cells; conditions: NCI-H358 cells, 2 hours of treatment, pERK normalized by Janus Green B, read-out: p-ERK IC50 (NCI H358)
Procedure: The cells were treated with or without the compound of the present disclosure (dimethyl sulfoxide, DMSO), and the final concentration of DMSO was guaranteed to be 0.5%. After 2 hours of treatment, the medium was removed and 4% paraformaldehyde (Beyotime catalog number E672002-0100) was added and left to stand for 20 minutes. Cells were washed with PBS after fixation and incubated with precooled methanol for 10 min to permeabilize the cell membrane.
The level of phosphorylated ERK was detected using an enzyme linked immunosorbent assay (ELISA) method. […] The plates were washed 5 times with PBS containing 0.05% Tween 20. […] The reaction was stopped by adding 1 mol/L H2SO4, and the OD value was read at 450 nm by EnVision (PerkinElmer).
The total number of cells per well was detected by Janus Green B staining method. After detecting the level of phosphorylated ERK, the 96-well plate was washed with PBS until colorless, and 0.1% Janus Green B (Abcam catalogue number ab111622) was added to incubate for 10 minutes. After the 96-well plate was washed with double distilled water, 0.1 mol/L HCl was added, then the mixture was shaked and incubated for 10 minutes. The OD value was read at 595 nm by EnVision (PerkinElmer).
The signal of pERK (Thr202/Tyr204) was normalized by the signal value of Janus Green B, and the inhibition percentage after drug treatment relative to DMSO reference was calculated. The percentage values were fitted by a four-parameter dose-response curve and generated IC50 values.

[2] = system: NCI-H358 cells expressing KRAS-G12C; assay: Growth inhibition of tumor cell line expressing KRAS-G12C (Cell Titer Glo), NCI-H358
Procedure: (§1) The ability of the compounds of the present disclosure to inhibit the growth of cells expressing KRAS-G12C was evaluated by measuring the cell viability and calculating the GI50 values.
(§2) The tumor cell line NCI-H358 (ATCC catalogue number CRL-5807) expressing KRAS-G12C was cultured in RPMI medium supplemented with 10% fetal bovine serum and penicillin/streptomycin, and the tumor cell line MIA PaCa2 (ATCC CRL-1420) expressing KRAS-G12C was cultured in DMEM medium supplemented with 10% fetal bovine serum, 2.5% horse serum, and penicillin/streptomycin.
(§3) Cells NCI-H358 and MIA-Paca2 were inoculated into black transparent bottom 384-well plate (PerkinElmer catalogue number 6007460) with cell density of 1000 and 800 respectively, and the cells were allowed to adhere to the wall overnight (8-12 hours). After the cells adhered to the wall, the experimental group was added with the compound of the present disclosure diluted 5 times the concentration of the working solution (final concentration containing 0.1% dimethyl sulfoxide, i.e. DMSO); the control group was added with the same dilution as the experimental group (final concentration containing 0.1% DMSO). After 72 hours, Cell Titer Glo reagent (Promega catalogue number G7572) was used to detect ATP content according to the instruction method to determine the amount of cell proliferation. The brief operation steps were as follows: the cell plate was taken out and kept at normal temperature for equilibrium for 30 minutes; Cell Titer Glo reagent with the same volume as the culture was added; the culture plate was placed on a shaker for shaking and cracking for 2 minutes; the culture plate was left to stand at room temperature for 10 minutes; then the light signal value was read by microplate reader EnVision (PerkinElmer).
(§4) Data from all experimental groups were used to calculate the respective percent inhibition using the DMSO group, and the GI50 was calculated using the data processing software GraphPad to analyze the inhibition rates produced by the 9 compound dose concentrations diluted at ⅓-fold ratio.

[3] = system: MIA PaCa2 cells expressing KRAS-G12C; assay: Growth inhibition of tumor cell line expressing KRAS-G12C (Cell Titer Glo), MIA PaCa2; conditions: MIA-Paca2, 72 hours
Procedure: as §1, §2, §3, §4

| SMILES | GI50 ([2]; NCI-H358, 72 hours) | GI50 ([3]; Homo sapiens, MIA PaCa-2, 72 h) | GI50 ([2]; Homo sapiens, NCI-H358, 72 h) | GI50 [3] | IC50 [1] | IC50 ([1]; Homo sapiens, NCI-H358, 2 h) |
| --- | --- | --- | --- | --- | --- | --- |
| C=CC(=O)N1C[C@@H]2CN(C)c3c(c4cc(F)c(-c5c(O)cccc5F)nc4n(-c4ccccc4C(C)C)c3=O)N2C[C@H]1C [Compound 10A] | – | 0.496 µM | 0.184 µM | – | – | 0.063 µM |
| C=CC(=O)N1C[C@@H]2COc3c(c4cc(F)c(-c5c(O)cccc5F)nc4n(-c4c(C)ccnc4C(C)C)c3=O)N2C[C@H]1C (single isomer, unassigned) [Compound 5B] | 0.21 µM | – | – | 3.13 µM | 0.128 µM | – |
| C=CC(=O)N1C[C@@H]2COc3c(c4cc(F)c(-c5c(F)cccc5OC)nc4n(-c4c(C)ccnc4C(C)C)c3=O)N2C[C@H]1C (single isomer, unassigned) [Compound 6A] | – | 0.23 µM | 0.041 µM | – | 0.065 µM | – |
| C=CC(=O)N1C[C@@H]2COc3c(c4cc(F)c(-c5c(O)cccc5F)c(F)c4n(-c4c(C(C)C)ncnc4C(C)C)c3=O)N2C[C@H]1C [Compound 19A] | – | 0.014 µM | 0.008 µM | – | – | 0.008 µM |
| C=CC(=O)N1C[C@@H]2COc3c(c4cc(F)c(-c5c(C)ccc6[nH]ncc56)nc4n(-c4ccccc4C(C)C)c3=O)N2C[C@H]1C (single isomer, unassigned) [Compound 13A] | – | 0.265 µM | 0.059 µM | – | 0.04 µM | – |
| C=CC(=O)N1C[C@@H]2C(=O)N(C)c3c(c4cc(F)c(-c5c(O)cccc5F)c(F)c4n(-c4c(C(C)C)ncnc4C(C)C)c3=O)N2C[C@H]1C [Compound 20A] | – | 0.01 µM | 0.004 µM | – | – | 0.004 µM |
| C=CC(=O)N1C[C@@H]2C(=O)N(C)c3c(c4cc(F)c(-c5c(O)cccc5F)c(F)c4n(-c4c(C)ccnc4C(C)C)c3=O)N2C[C@H]1C [Compound 21A-1] | – | 0.156 µM | 0.091 µM | – | 0.104 µM | – |
| C=CC(=O)N1C[C@@H]2COc3c(c4cc(F)c(-c5c(O)cccc5F)c(F)c4n(-c4c(C)ccnc4C(C)C)c3=O)N2C[C@H]1C [Compound 3B] | 0.008 µM | – | – | 0.039 µM | 0.008 µM | – |
| C=CC(=O)N1C[C@@H]2C(=O)Nc3c(c4cc(F)c(-c5c(O)cccc5F)c(F)c4n(-c4c(C)ccnc4C(C)C)c3=O)N2C[C@H]1C [Compound 22A-1] | 0.028 µM | – | – | 0.085 µM | 0.06 µM | – |
| C=CC(=O)N1C[C@@H]2COc3c(c4cc(Cl)c(-c5c(O)cccc5F)c(F)c4n(-c4c(C)ccnc4C(C)C)c3=O)N2C[C@H]1C (atropisomer, axis not shown) [Compound 18A-2] | 0.012 µM | – | – | 0.024 µM | 0.013 µM | – |
| C=CC(=O)N1CC2C(=O)N(CCN(C)C)c3c(c4cc(F)c(-c5c(O)cccc5F)c(F)c4n(-c4c(C)ccnc4C(C)C)c3=O)N2CC1C (stereo not drawn) [Compound 24C] | 0.011 µM | – | – | 0.023 µM | 0.012 µM | – |
| C=CC(=O)N1CC2COc3c(c4cc(Cl)c(-c5c(O)cccc5F)c(F)c4n(-c4c(C)ccnc4C(C)C)c3=O)N2CC1C (single isomer, unassigned) [Compound 18B-2] | 0.149 µM | – | – | 0.172 µM | 0.102 µM | – |
| C=CC(=O)N1C[C@@H]2CN(C)c3c(c4cc(Cl)c(-c5c(O)cccc5F)nc4n(-c4c(C)ccnc4C(C)C)c3=O)N2C[C@H]1C [Compound 8] | – | 0.037 µM | 0.022 µM | – | – | 0.024 µM |
| C=CC(=O)N1C[C@@H]2COc3c(c4cc(Cl)c(-c5c(O)cccc5F)c(F)c4n(-c4c(C)ccnc4C(C)C)c3=O)N2C[C@H]1C [Compound 18A] | 0.006 µM | – | – | 0.013 µM | 0.005 µM | – |

Second part, led by results:

| GI50 ([2]; NCI-H358, 72 hours) | GI50 ([3]; Homo sapiens, MIA PaCa-2, 72 h) | GI50 ([2]; Homo sapiens, NCI-H358, 72 h) | GI50 [3] | SMILES | IC50 [1] | IC50 ([1]; Homo sapiens, NCI-H358, 2 h) |
| --- | --- | --- | --- | --- | --- | --- |
| 0.053 µM | 2.14 µM | – | – | C=CC(=O)N1C[C@@H]2CN(CCCO)c3c(c4cc(F)c(-c5c(O)cccc5F)c(F)c4n(-c4c(C)ccnc4C(C)C)c3=O)N2C[C@H]1C [Compound 35A] | 0.068 µM | – |
| 0.163 µM | – | – | 2.6 µM | C=CC(=O)N1C[C@@H]2CN(CCCO)c3c(c4cc(F)c(-c5c(O)cccc5F)c(F)c4n(-c4c(C)ccnc4C(C)C)c3=O)N2C[C@H]1C (atropisomer, axis not shown) [Compound 35A-1] | 0.313 µM | – |
| 0.085 µM | – | – | 0.117 µM | C=CC(=O)N1C[C@@H]2C(=O)N(CCN(C)C)c3c(c4cc(Cl)c(-c5c(F)cccc5OC)c(F)c4n(-c4c(C)ccnc4C(C)C)c3=O)N2C[C@H]1C (atropisomer, axis not shown) [Compound 27D] | 0.124 µM | – |
| – | 0.392 µM | 0.066 µM | – | C=CC(=O)N1C[C@@H]2CN(CCC(C)O)c3c(c4cc(F)c(-c5c(O)cccc5F)c(F)c4n(-c4c(C)ccnc4C(C)C)c3=O)N2C[C@H]1C (stereo partly drawn) [Compound 37A] | – | 0.07 µM |
| 0.022 µM | – | – | 0.028 µM | C=CC(=O)N1C[C@@H]2C(=O)N(CCN(C)C)c3c(c4cc(Cl)c(-c5c(O)cccc5F)c(F)c4n(-c4c(C)ccnc4C(C)C)c3=O)N2C[C@H]1C (atropisomer, axis not shown) [Compound 26B] | 0.019 µM | – |
| – | 0.228 µM | 0.009 µM | – | C=CC(=O)N1C[C@@H]2C(=O)N(C)c3c(c4cc(Cl)c(-c5c(F)cccc5OC)c(F)c4n(-c4c(C)ccnc4C(C)C)c3=O)N2C[C@H]1C [Compound 42A] | – | 0.009 µM |
| – | 0.009 µM | 0.007 µM | – | C=CC(=O)N1C[C@@H]2C(=O)N(C)c3c(c4cc(F)c(-c5c(C)ccc6[nH]nc(N)c56)c(F)c4n(-c4c(C)ccnc4C(C)C)c3=O)N2C[C@H]1C [Compound 28A] | – | 0.006 µM |
| – | 0.235 µM | 0.032 µM | – | C=CC(=O)N1C[C@@H]2CN(CCO)c3c(c4cc(F)c(-c5c(O)cccc5F)c(F)c4n(-c4c(C)ccnc4C(C)C)c3=O)N2C[C@H]1C [Compound 36A-1] | – | 0.016 µM |
| 0.012 µM | – | – | 0.025 µM | C=CC(=O)N1C[C@@H]2C(=O)N(C)c3c(c4cc(Cl)c(-c5ccc(F)c6nc(N)sc56)nc4n(-c4c(C)ccnc4C(C)C)c3=O)N2C[C@H]1C (single isomer, unassigned) [Compound 56B] | 0.011 µM | – |
| – | 2.23 µM | 0.53 µM | – | C=CC(=O)N1C[C@@H]2C(=O)N(CCCO)c3c(c4cc(F)c(-c5c(O)cccc5F)c(F)c4n(-c4c(C)ccnc4C(C)C)c3=O)N2C[C@H]1C [Compound 41A] | – | 0.942 µM |
| – | 0.056 µM | 0.062 µM | – | C=CC(=O)N1C[C@@H]2C(=O)N(CCO)c3c(c4cc(F)c(-c5c(O)cccc5F)c(F)c4n(-c4c(C)ccnc4C(C)C)c3=O)N2C[C@H]1C [Compound 40A] | – | 0.052 µM |
| – | 0.006 µM | 0.007 µM | – | C=CC(=O)N1C[C@@H]2C(=O)N(CCN(C)C)c3c(c4cc(Cl)c(-c5c(O)cccc5F)c(F)c4n(-c4c(CC)ccnc4C(C)C)c3=O)N2C[C@H]1C (atropisomer, axis not shown) [Compound 54B-1] | 0.012 µM | – |
| 0.223 µM | – | – | 0.448 µM | C=CC(=O)N1C[C@@H]2C(=O)N(C)c3c(c4cc(Cl)c(-c5ccc(F)c6nc(N)sc56)nc4n(-c4c(C)ccnc4C(C)C)c3=O)N2C[C@H]1C (single isomer, unassigned) [Compound 56A] | 0.183 µM | – |
| 0.232 µM | – | – | 0.407 µM | C=CC(=O)N1CC2C(=O)N(CCN(C)C)c3c(c4cc(F)c(-c5c(O)cccc5F)c(F)c4n(-c4c(C)ccnc4C(C)C)c3=O)N2CC1C (stereo not drawn) [Compound 24D] | 0.246 µM | – |
